Experimental findings from patent US8691865B2 (AbbVie Inc., priority 2008, dated 2014) are described below.

Bounds are passed on as bounds.

For the first experiment, the target named is human Cav2.2 (Homo sapiens, UniProt Q00975). In words: Assessment of calcium channel activity using FLIPR (Ca2+ influx in IMR32 cells). It is filed as cell-based.
human Cav2.2, sequence (Q00975 whole entry): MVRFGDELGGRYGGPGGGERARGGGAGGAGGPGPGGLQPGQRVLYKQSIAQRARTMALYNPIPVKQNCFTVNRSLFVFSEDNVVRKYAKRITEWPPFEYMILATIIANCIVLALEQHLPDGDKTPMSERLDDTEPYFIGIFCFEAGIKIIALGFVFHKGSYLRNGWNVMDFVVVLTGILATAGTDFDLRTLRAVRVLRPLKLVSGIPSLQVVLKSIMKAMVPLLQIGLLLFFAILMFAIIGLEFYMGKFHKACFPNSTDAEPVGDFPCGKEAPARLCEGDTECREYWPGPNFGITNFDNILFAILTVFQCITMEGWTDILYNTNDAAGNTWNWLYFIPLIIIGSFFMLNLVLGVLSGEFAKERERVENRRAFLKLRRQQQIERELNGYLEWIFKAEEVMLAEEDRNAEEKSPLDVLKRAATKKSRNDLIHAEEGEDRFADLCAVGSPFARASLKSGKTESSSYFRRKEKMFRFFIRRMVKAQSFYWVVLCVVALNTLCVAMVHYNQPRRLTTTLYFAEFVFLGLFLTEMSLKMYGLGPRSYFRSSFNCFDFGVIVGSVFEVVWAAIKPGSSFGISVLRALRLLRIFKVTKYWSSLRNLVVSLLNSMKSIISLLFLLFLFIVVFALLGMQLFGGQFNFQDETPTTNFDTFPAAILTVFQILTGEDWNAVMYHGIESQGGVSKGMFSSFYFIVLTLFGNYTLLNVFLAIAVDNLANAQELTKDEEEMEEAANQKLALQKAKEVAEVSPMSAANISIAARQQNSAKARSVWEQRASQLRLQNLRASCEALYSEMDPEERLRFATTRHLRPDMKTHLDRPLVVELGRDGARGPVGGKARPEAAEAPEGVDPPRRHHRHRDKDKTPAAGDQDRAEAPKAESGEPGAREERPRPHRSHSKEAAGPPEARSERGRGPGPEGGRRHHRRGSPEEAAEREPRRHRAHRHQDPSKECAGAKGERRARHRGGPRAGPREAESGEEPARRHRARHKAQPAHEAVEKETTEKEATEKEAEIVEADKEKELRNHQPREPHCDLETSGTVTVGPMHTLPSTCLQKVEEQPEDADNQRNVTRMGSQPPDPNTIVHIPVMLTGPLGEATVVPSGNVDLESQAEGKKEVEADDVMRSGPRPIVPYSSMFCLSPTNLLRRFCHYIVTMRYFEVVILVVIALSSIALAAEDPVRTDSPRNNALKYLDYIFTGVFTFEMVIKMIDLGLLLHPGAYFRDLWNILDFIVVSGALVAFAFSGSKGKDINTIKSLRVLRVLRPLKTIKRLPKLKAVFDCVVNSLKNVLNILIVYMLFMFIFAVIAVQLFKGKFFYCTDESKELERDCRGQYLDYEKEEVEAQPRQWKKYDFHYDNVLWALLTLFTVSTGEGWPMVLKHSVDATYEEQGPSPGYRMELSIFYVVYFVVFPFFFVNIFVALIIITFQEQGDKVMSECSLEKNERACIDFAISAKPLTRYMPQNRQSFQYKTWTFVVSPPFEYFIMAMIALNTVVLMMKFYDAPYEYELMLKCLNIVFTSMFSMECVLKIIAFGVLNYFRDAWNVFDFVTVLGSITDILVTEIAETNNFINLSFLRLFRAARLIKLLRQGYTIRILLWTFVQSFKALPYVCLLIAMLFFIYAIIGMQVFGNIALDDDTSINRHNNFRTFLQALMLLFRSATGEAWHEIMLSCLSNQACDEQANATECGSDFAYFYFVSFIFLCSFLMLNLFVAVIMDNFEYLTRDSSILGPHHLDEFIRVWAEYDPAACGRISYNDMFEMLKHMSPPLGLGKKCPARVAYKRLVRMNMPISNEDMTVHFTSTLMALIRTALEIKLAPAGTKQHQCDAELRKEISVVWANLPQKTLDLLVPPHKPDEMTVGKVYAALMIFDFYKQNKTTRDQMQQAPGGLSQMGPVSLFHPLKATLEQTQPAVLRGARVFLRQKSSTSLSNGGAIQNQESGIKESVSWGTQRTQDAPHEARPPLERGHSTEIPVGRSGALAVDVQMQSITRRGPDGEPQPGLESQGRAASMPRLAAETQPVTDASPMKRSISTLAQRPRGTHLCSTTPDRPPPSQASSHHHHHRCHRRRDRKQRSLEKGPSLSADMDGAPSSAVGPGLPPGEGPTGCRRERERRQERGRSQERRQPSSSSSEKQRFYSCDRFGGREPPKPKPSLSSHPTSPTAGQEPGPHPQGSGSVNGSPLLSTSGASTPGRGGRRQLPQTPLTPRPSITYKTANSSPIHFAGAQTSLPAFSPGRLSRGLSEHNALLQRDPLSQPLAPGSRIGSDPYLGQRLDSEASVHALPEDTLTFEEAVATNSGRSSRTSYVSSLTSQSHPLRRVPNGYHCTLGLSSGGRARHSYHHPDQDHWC
human Cav2.2, sequence (P54289 25-956 partner limits assumed): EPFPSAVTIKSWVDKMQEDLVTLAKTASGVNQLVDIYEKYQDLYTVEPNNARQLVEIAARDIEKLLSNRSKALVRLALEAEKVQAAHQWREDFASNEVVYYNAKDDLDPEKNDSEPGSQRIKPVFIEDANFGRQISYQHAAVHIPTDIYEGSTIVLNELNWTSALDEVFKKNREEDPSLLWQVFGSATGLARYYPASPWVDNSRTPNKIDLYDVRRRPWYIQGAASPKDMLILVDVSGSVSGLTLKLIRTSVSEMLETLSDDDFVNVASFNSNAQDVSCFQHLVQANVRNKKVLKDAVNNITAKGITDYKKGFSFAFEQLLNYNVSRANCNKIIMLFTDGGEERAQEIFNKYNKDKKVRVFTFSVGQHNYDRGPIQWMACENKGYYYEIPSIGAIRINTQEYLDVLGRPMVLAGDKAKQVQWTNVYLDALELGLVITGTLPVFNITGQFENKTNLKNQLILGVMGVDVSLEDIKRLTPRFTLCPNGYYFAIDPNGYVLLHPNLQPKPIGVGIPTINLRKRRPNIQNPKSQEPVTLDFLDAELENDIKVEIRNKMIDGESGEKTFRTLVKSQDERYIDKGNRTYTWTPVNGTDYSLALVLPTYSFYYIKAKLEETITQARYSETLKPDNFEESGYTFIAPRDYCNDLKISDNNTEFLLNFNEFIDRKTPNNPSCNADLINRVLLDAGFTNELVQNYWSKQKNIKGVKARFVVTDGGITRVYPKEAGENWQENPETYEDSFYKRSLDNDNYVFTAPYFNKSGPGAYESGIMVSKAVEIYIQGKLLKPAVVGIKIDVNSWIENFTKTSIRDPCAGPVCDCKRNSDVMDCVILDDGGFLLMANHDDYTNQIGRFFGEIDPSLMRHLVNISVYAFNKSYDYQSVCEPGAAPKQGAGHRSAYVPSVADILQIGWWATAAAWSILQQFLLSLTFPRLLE
human Cav2.2, sequence (P54289 957-1103 partner limits assumed): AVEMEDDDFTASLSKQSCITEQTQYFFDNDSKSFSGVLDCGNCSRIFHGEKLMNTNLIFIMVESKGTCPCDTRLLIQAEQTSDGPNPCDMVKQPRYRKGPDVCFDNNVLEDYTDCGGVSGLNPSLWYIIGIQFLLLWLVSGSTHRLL
human Cav2.2, sequence (P54284 whole entry partner): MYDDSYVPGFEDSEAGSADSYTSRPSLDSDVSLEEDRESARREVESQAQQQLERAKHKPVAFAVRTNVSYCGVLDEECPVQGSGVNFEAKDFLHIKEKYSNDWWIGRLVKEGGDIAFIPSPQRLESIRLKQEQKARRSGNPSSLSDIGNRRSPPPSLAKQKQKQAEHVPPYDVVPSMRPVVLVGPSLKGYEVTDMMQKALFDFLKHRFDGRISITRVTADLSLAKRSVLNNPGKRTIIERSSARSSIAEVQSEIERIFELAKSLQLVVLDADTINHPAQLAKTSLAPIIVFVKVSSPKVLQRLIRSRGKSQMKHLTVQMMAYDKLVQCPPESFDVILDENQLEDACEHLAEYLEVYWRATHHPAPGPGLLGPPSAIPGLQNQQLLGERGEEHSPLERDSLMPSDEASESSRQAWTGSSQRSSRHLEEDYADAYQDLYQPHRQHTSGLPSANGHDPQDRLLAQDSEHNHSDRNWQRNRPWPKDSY
Details: not given
The method, boiled down:
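IC50 values derive from nonlinear sigmoidal fitting of percent inhibition, relative to inhibitor-free activity, of Ca2+ influx read by FLIPR. Cells were IMR32 human neuroblastoma, plated at 1−1.2×10^5 per well and grown 48 h at 37 °C.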
Consider `CC(C)C[C@@H](C(=O)N[C@@H]1CC[C@H]2CN(Cc3ccccc3)C[C@H]21)N1CCOCC1` [Example 249, (2S)-N-[(3aS,4R,6aR)-2-benzyloctahydrocyclopenta[c]pyrrol-4-yl]-4-methyl-2-morpholin-4-ylpentanamide], for which the IC50 is above 30 µM.

Turning to `CC(C)C[C@@H](C(=O)N[C@@H]1CC[C@H]2CN(Cc3ccccc3)C[C@H]21)N1CCCC1` [Example 250, (2S)-N-[(3aS,4R,6aR)-2-benzyloctahydrocyclopenta[c]pyrrol-4-yl]-4-methyl-2-pyrrolidin-1-ylpentanamide], the IC50 was above 30 µM.

For `CCC[C@H](NCC(C)(C)C)C(=O)N[C@H]1CC[C@@H]2CN(S(=O)(=O)c3ccc(C(F)(F)F)cc3)C[C@@H]21` [Example 257, N^2-neopentyl-N^1-((3aR,4S,6aS)-2-{[4-(trifluoromethyl)phenyl]sulfonyl}octahydrocyclopenta[c]pyrrol-4-yl)-L-norvalinamide], the IC50 amounted to 0.7 µM.

In the case of `CCC[C@H](NCC(C)(C)C)C(=O)N[C@@H]1CC[C@H]2CN(S(=O)(=O)c3ccc(C(F)(F)F)cc3)C[C@H]21` [Example 260, N^2-neopentyl-N^1-((3aS,4R,6aR)-2-{[4-(trifluoromethyl)phenyl]sulfonyl}octahydrocyclopenta[c]pyrrol-4-yl)-L-norvalinamide], the IC50 worked out at 1.11 µM.

`CC(C)C[C@H](NCC(C)(C)C)C(=O)N[C@H]1CC[C@@H]2CN(S(=O)(=O)c3ccc(F)cc3)C[C@@H]21` [Example 261, N^1-{(3aR,4S,6aS)-2-[(4-fluorophenyl)sulfonyl]octahydrocyclopenta[c]pyrrol-4-yl}-N^2-neopentyl-L-leucinamide]: the IC50 turned out to be 1.25 µM.

Turning to `CCC[C@H](NC(=O)OC(C)C)C(=O)N[C@H]1CC[C@@H]2CN(c3ccc(C(F)(F)F)cn3)C[C@@H]21` [Example 263, isopropyl(S)-1-oxo-1-((3aR,4S,6aS)-2-(5-(trifluoromethyl)pyridin-2-yl)octahydrocyclopenta[c]pyrrol-4-ylamino)pentan-2-ylcarbamate], the IC50 is above 30 µM.

In the case of `CCC[C@H](NC(=O)OC(C)C)C(=O)N[C@H]1CC[C@@H]2CN(S(=O)(=O)c3ccc(C(F)(F)F)cc3)C[C@@H]21` [Example 279, isopropyl(S)-1-oxo-1-((3aR,4S,6aS)-2-(4-(trifluoromethyl)phenylsulfonyl)octahydrocyclopenta[c]pyrrol-4-ylamino)pentan-2-ylcarbamate], the IC50 is above 16.4 µM.

As for `CN[C@H]1CC[C@@H]2CN(S(=O)(=O)c3ccc(C(F)(F)F)cc3)C[C@@H]21` [Example 301, (3aR,4S,6aS)-N-methyl-2-{[4-(trifluoromethyl)phenyl]sulfonyl}octahydrocyclopenta[c]pyrrol-4-amine], the IC50 was above 9 µM.

In the case of `CC(C)C(C(=O)N[C@H]1CC[C@@H]2CN(Cc3cccc(C(F)(F)F)c3)C[C@@H]21)C(C)C` [Example 305, 2-isopropyl-3-methyl-N-{(3aR,4S,6aS)-2-[3-(trifluoromethyl)benzyl]octahydrocyclopenta[c]pyrrol-4-yl}butanamide], the IC50 is 1.63 µM.

In the case of `CC(C)C[C@@H](C(=O)N[C@H]1CC[C@@H]2CN(Cc3ccc(C(F)(F)F)cc3)C[C@@H]21)N(C)C(=O)OC(C)(C)C` [Example 308, tert-butyl methyl((S)-4-methyl-1-oxo-1-((3aR,4S,6aS)-2-(4-(trifluoromethyl)benzyl)octahydrocyclopenta[c]pyrrol-4-ylamino)pentan-2-yl)carbamate], the IC50 was 1.93 µM.

Consider `CC(C)CC(C(=O)NC1CCC2CN(Cc3ccc(C(F)(F)F)c(F)c3)CC21)N(C)C(=O)OC(C)(C)C` [Example 311, tert-butyl(S)-1-((3aS,4R,6aR)-2-(3-fluoro-4-(trifluoromethyl)benzyl)octahydrocyclopenta[c]pyrrol-4-ylamino)-4-methyl-1-oxopentan-2-ylmethyl)carbamate], for which the IC50 came out at 2.05 µM.

The experiment is the same for the next values; noted with them: read-out: IC50 (μM) or percent inhibition (* indicates 3 minute incubation, otherwise 60 minute); IC50; 60 minute pre-incubation with compound; IMR32 cells, 80 mM KCl depolarization.
Consider `CC(C)C[C@@H](C(=O)N[C@H]1CC[C@H]2CN(Cc3ccccc3)C[C@H]21)N(C)C(=O)OC(C)(C)C` [Example 239, tert-butyl(S)-1-((3aS,4S,6aR)-2-benzyloctahydrocyclopenta[c]pyrrol-4-ylamino)-4-methyl-1-oxopentan-2-yl(methyl)carbamate], for which the IC50 worked out at 3.32 µM.

For `CC(C)C[C@@H](C(=O)N[C@@H]1CC[C@@H]2CN(Cc3ccccc3)C[C@@H]21)N(C)C(=O)OC(C)(C)C` [Example 241], the IC50 is 2.08 µM.

`CC(C)C[C@H](NS(C)(=O)=O)C(=O)N[C@@H]1CC[C@H]2CN(Cc3ccccc3)C[C@H]21` [Example 243, N^1-[(3aS,4R,6aR)-2-benzyloctahydrocyclopenta[c]pyrrol-4-yl]-N^2-(methylsulfonyl)-L-leucinamide]: the IC50 was 8.58 µM.

Turning to `CC(C)C[C@H](NCC(C)(C)C)C(=O)N[C@H]1CC[C@@H]2CN(Cc3ccccc3)C[C@@H]21` [Example 244, N^1-[(3aR,4S,6aS)-2-benzyloctahydrocyclopenta[c]pyrrol-4-yl]-N^2-neopentyl-L-leucinamide], the IC50 came out at 9.11 µM.

With `CCC[C@H](NCC(C)(C)C)C(=O)N[C@@H]1CC[C@H]2CN(Cc3ccccc3)C[C@H]21` [Example 246, N^1-[(3aS,4R,6aR)-2-benzyloctahydrocyclopenta[c]pyrrol-4-yl]-N^2-neopentyl-L-norvalinamide], the IC50 was found to be 8.38 µM.

Consider `CC(C)[C@@H](CC(=O)N[C@@H]1CC[C@H]2CN(S(=O)(=O)c3cccc(C(F)(F)F)c3)C[C@H]21)NC(=O)OC(C)(C)C` [Example 267, tert-butyl(1R)-1-isopropyl-3-oxo-3-[((3aS,4R,6aR)-2-{[3-(trifluoromethyl)phenyl]sulfonyl}octahydrocyclopenta[c]pyrrol-4-yl)amino]propylcarbamate], for which the IC50 is 14.1 µM.

With `CC(C)N[C@H]1CC[C@@H]2CN(S(=O)(=O)c3ccc(C(F)(F)F)cc3Cl)C[C@@H]21` [Example 284, (3aR,4S,6aS)-2-{[2-chloro-4-(trifluoromethyl)phenyl]sulfonyl}-N-isopropyloctahydrocyclopenta[c]pyrrol-4-amine], the IC50 stood at 3.7 µM.

Take `CCN(CC)[C@H]1CC[C@@H]2CN(S(=O)(=O)c3ccc(C(F)(F)F)cc3)C[C@@H]21` [Example 289, (3aR,4S,6aS)-N,N-diethyl-2-{[4-(trifluoromethyl)phenyl]sulfonyl}octahydrocyclopenta[c]pyrrol-4-amine]: the IC50 was 9.75 µM.

As for `CCN(CC)[C@H]1CC[C@@H]2CN(S(=O)(=O)c3ccc(C(F)(F)F)cc3Cl)C[C@@H]21` [Example 294, (3aR,4S,6aS)-2-{[2-chloro-4-(trifluoromethyl)phenyl]sulfonyl}-N,N-diethyloctahydrocyclopenta[c]pyrrol-4-amine], the IC50 was 7.8 µM.

In the case of `O=S(=O)(c1ccc(C(F)(F)F)cc1Cl)N1C[C@H]2CC[C@H](Nc3ccc(C(F)(F)F)cn3)[C@H]2C1` [Example 295, (3aR,4S,6aS)-2-{[2-chloro-4-(trifluoromethyl)phenyl]sulfonyl}-N-[5-(trifluoromethyl)pyridin-2-yl]octahydrocyclopenta[c]pyrrol-4-amine], the IC50 was found to be 2.98 µM.

In the case of `CN(C(=O)OC(C)(C)C)[C@@H](CC(C)(C)C)C(=O)N(CC1CC1)[C@H]1CC[C@@H]2CN(S(=O)(=O)c3ccc(C(F)(F)F)cc3)C[C@@H]21` [Example 298], the IC50 worked out at 8.99 µM.
